The record followed here is patent publication US20080021071A1, “3-{4-(Pyridin-3-Yl) Phenyl}-5-(1H-1,2,3-Triazol-1-Ylmethyl)-1,3-Oxazolidin-2-Ones as Antibacterial Agents” (ASTRAZENECA AB, priority 2004, published 2008).

For one series, the target named is T1, MAO-A (Homo sapiens, UniProt P21397).
T1 construct: made in house; host or cells: yeast
T1 sequence (P21397 1-527): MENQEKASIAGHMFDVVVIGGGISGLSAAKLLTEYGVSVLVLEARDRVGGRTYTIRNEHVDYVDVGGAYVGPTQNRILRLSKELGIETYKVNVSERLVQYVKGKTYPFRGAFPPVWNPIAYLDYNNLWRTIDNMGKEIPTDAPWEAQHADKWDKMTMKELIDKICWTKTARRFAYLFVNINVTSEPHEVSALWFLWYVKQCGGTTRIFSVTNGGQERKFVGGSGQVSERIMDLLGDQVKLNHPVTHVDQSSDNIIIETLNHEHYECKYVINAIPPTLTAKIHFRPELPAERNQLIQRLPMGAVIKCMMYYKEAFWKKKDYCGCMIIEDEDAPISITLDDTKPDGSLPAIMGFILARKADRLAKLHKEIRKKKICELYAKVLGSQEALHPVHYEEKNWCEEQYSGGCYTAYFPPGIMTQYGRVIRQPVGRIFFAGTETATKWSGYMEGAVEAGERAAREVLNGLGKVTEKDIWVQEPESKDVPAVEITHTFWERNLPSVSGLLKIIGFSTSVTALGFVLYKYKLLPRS
The series is described as follows: MAO-A inhibition, standard in-vitro assay, human liver enzyme expressed in yeast. It is filed as biochemical. As for the experimental part: The activity of the compounds of the invention against MAO-A was tested using a standard in-vitro assay based on human liver enzyme expressed in yeast as described in Biochem. Biophys. Res. Commun. 1991, 181, 1084-1088. Compounds of the invention typically give Ki values of >5 μM when measured in such an assay as above.

The nature of series [1]: equilibrium solubility in pH 7.4 phosphate buffer. It is filed as physicochemical. As to conditions: aqueous buffer, thermodynamic from solid. An excerpt:
It will be understood that parameters such as solubility may be measured by any suitable technique known in the art.

Series [2] concerns Linezolid Resistant Streptococcus pneumoniae. Description: MIC, Linezolid Resistant Streptococcus pneumoniae. The format is cell-based. As for the experimental part: (§1) The following results were obtained on a standard in-vitro test system. The activity is described in terms of the minimum inhibitory concentration (MIC) determined by the agar-dilution technique with an inoculum size of 10^4 CFU/spot. Typically, compounds are active in the range 0.01 to 256 μg/ml.
(§2) Streptococci and enterococci were tested on agar supplemented with 5% defibrinated horse blood, an inoculum of 10^4 CFU/spot and an incubation temperature of 37° C. in an atmosphere of 5% carbon dioxide for 48 hours—blood is required for the growth of some of the test organisms. Fastidious Gram negative organisms were tested in Mueller-Hinton broth, supplemented with hemin and NAD, grown aerobically for 24 hours at 37° C., and with an innoculum of 5×10^4 CFU/well.

Another series deals with Haemophilus influenzae. Description: MIC, Haemophilus influenzae. It is filed as cell-based. As for the experimental part:
as §1, §2

For series [3], the system named is Staphylococcus aureus MRQR. The series is described as follows: MIC, agar-dilution, Staphylococcus aureus MRQR. It is filed as cell-based. As to conditions: Staphylococcus aureus MRQR (methicillin resistant and quinolone resistant). As for the experimental part: as §1
(§3) Staphylococci were tested on agar, using an inoculum of 10^4 CFU/spot and an incubation temperature of 37° C. for 24 hours—standard test conditions for the expression of methicillin resistance.

The test system of series [4] is Staphylococcus aureus MSQS. Description: MIC, agar-dilution, Staphylococcus aureus MSQS. The format is cell-based. As to conditions: Staphylococcus aureus MSQS (methicillin sensitive and quinolone sensitive). Here is the method:
as §1, §3

In another series the test system is Streptococcus pneumoniae. Description: MIC, Streptococcus pneumoniae. The format is cell-based. As for the experimental part: as §1, §2

SMILES strings stand for the structures. Values after ≈ are worked out from the molar mass of the structure shown. Where a name gives a salt, the structure may show the parent alone. Bounds are passed on as bounds.

With `O=C1O[C@@H](Cn2ccnn2)CN1c1ccc(-c2ccc(C(O)CN3CCOCC3)nc2)c(F)c1` (stereo partly drawn) (as salt: hydrochloride) [Example 1, (5R)-3-{3-Fluoro-4-[6-(1-hydroxy-2-morpholin-4-ylethyl)pyridin-3-yl]phenyl}-5-(1H-1,2,3-triazol-1-ylmethyl)-1,3-oxazolidin-2-one], the melting point was > 194 °C (dec.).

In turn, `CN(C)Cc1ccc(-c2ccc(N3C[C@H](Cn4ccnn4)OC3=O)cc2F)cn1` [Example 8] had a melting point of 160 °C. Besides, the affinity at MAO-A, expressed as Ki, was 15 µM.

In series [1], `Cn1nnc(-c2ccc(-c3ccc(N4C[C@H](Cn5ccnn5)OC4=O)cc3F)cn2)n1` [Reference Example 6, (5R)-3-(3-Fluoro-4-(6-(2-methyl-2H-tetrazol-5-yl)pyrid-3-yl)phenyl)-5-(1H-1,2,3-triazol-1-ylmethyl)-1,3-oxazolidin-2-one, reference compound] came in with a solubility (thermodynamic) of less than 7.1 µM.

On to `O=C1O[C@@H](Cn2ccnn2)CN1c1ccc(-c2ccc(CO)nc2)c(F)c1` [Ref Example 3, (5R)-3-{3-Fluoro-4-[6-(hydroxymethyl)pyridin-3-yl]phenyl}-5-(1H-1,2,3-triazol-1-ylmethyl)-1,3-oxazolidin-2-one], for which the melting point was 177 °C. Besides, the affinity at MAO-A, expressed as Ki, was 4.8 µM.

For `O=C1O[C@@H](Cn2ccnn2)CN1c1ccc(-c2ccc(C(O)C3CC3)nc2)c(F)c1` (stereo partly drawn) [Example 16, (5R)-3-(4-{6-[Cyclopropyl(hydroxy)methyl]pyridin-3-yl}-3-fluorophenyl)-5-(1H-1,2,3-triazol-1-ylmethyl)-1,3-oxazolidin-2-one], the melting point fell in the range of 160 to 163 °C.

In turn, `CN(Cc1ccc(-c2ccc(N3C[C@H](Cn4ccnn4)OC3=O)cc2F)cn1)CC(O)CO` (stereo partly drawn) [Example 6, (5R)-3-[4-(6-{[(2,3-Dihydroxypropyl)(methyl)amino]methyl}pyridin-3-yl)-3-fluorophenyl]-5-(1-1,2,3-triazol-1-ylmethyl)-1,3-oxazolidin-2-one] displayed a melting point of 123 °C.

`O=C(OCc1ccc(-c2ccc(N3C[C@H](Cn4ccnn4)OC3=O)cc2F)cn1)N1CCOCC1` [Example 13, (5-{2-Fluoro-4-[(5R)-2-oxo-5-(1H-1,2,3-triazol-1-ylmethyl)-1,3-oxazolidin-3-yl]phenyl}pyridin-2-yl)methyl morpholine-4-carboxylate] had a melting point of 131 to 133 °C.

As for `CC(C)NCC(O)c1ccc(-c2ccc(N3C[C@H](Cn4ccnn4)OC3=O)cc2F)cn1` (stereo partly drawn) (as salt: hydrochloride) [Example 3, (5R)-3-(3-Fluoro-4-{6-[1-hydroxy-2-(isopropylamino)ethyl]pyridin-3-yl}phenyl)-5-(1H-1,2,3-triazol-1-ylmethyl)-1,3-oxazolidin-2-one], the melting point is > 170 °C (dec.).

`O=C1O[C@@H](Cn2ccnn2)CN1c1ccc(-c2ccc(C(O)CO)nc2)c(F)c1` (stereo partly drawn) [Example 4, (5R)-3-{4-[6-(1,2-Dihydroxyethyl)pyridin-3-yl]-3-fluorophenyl}-5-(1H-1,2,3-triazol-1-ylmethyl)-1,3-oxazolidin-2-one] showed a melting point of 175 °C. Further, the solubility (thermodynamic) in series [1] was 210 µM (≈ 83.9 µg/mL). The compound also returned a Ki on MAO-A of 48 µM.

For `Cc1ccc(-c2ccc(N3C[C@H](Cn4ccnn4)OC3=O)cc2F)cn1` [Ref Example 2, (5R)-3-[3-Fluoro-4-(6-methylpyridin-3-yl)phenyl]-5-(1H-1,2,3-triazol-1-ylmethyl)-1,3-oxazolidin-2-one], the Ki at MAO-A is 0.6 µM.

`CN(CCO)Cc1ccc(-c2ccc(N3C[C@H](Cn4ccnn4)OC3=O)cc2F)cn1` [Example 7, (5R)-3-[3-Fluoro-4-(6-{[(2-hydroxyethyl)(methyl)amino]methyl}pyridin-3-yl)phenyl]-5-(1H-1,2,3-triazol-1-ylmethyl)-1,3-oxazolidin-2-one] displayed a melting point of 137 °C.

Turning to `Cc1cn(C[C@H]2CN(c3ccc(-c4ccc(C#N)nc4)c(F)c3)C(=O)O2)nn1` [Ref Example 7, 5-(2Fluoro-4-{(5R)-5-[(4-methyl-1H-1,2,3-triazol-1-yl)methyl]-2-oxo-1,3-oxazolidin-3-yl}phenyl)pyridine-2-carbonitrile], the melting point fell in the range of 210 to 212 °C. Besides, the Ki at MAO-A was 3.65 µM.

In turn, `Cc1cnc(C)n1CC(O)c1ccc(-c2ccc(N3C[C@H](Cn4ccnn4)OC3=O)cc2F)cn1` (stereo partly drawn) [Example 20, (5R)-3-(4-{6-[2-(2,5-Dimethyl-1H-imidazol-1-yl)-1-hydroxyethyl]pyridin-3-yl}-3-fluorophenyl)-5-(1H-1,2,3-triazol-1-ylmethyl)-1,3-oxazolidin-2-one] yielded a melting point of 195 to 200 °C.

`C[C@H](O)c1ccc(-c2ccc(N3C[C@H](Cn4ccnn4)OC3=O)cc2F)cn1` [Example 11, (5R)-3-(3-Fluoro-4-{6-[(1S)-1-hydroxyethyl]pyridin-3-yl}phenyl)-5-(1H-1,2,3-triazol-1-ylmethyl)-1,3-oxazolidin-2-one] displayed a melting point of 183 °C.

Take `CN(C)CC(O)c1ccc(-c2ccc(N3C[C@H](Cn4ccnn4)OC3=O)cc2F)cn1` (stereo partly drawn) (as salt: hydrochloride) [Example 2, (5R)-3-(4-{6-[2-(Dimethylamino)-1-hydroxyethyl]pyridin-3-yl}-3-fluorophenyl)-5-(1H-1,2,3-triazol-1-ylmethyl)-1,3-oxazolidin-2-one]: the melting point was > 115 °C (dec.).

Regarding `O=C1O[C@@H](Cn2ccnn2)CN1c1ccc(-c2ccc(CN3CCOCC3)nc2)c(F)c1` [Example 9, (5R)-3-{3-Fluoro-4-[6-(morpholin-4-ylmethyl)pyridin-3-yl]phenyl}-5-(1H-1,2,3-triazol-1-ylmethyl)-1,3-oxazolidin-2-one], the melting point worked out at 175 °C.

In the case of `CC(C)(O)c1ccc(-c2ccc(N3C[C@H](Cn4ccnn4)OC3=O)cc2F)cn1` [Example 5, (5R)-3-{3-Fluoro-4-[6-(1-hydroxy-1-methylethyl)pyridin-3-yl]phenyl}-5-(1-1,2,3-triazol-1-ylmethyl)-1,3-oxazolidin-2-one], the melting point came to 180 °C.

In turn, `C[C@@H](O)c1ccc(-c2ccc(N3C[C@H](Cn4ccnn4)OC3=O)cc2F)cn1` [Example 10, (5R)-3-(3-Fluoro-4-{6-[(1R)-1-hydroxyethyl]pyridin-3-yl}phenyl)-5-(1H-1,2,3-triazol-1-ylmethyl)-1,3-oxazolidin-2-one] came in with a melting point of 190 °C.

In turn, `O=C1O[C@@H](Cn2ccnn2)CN1c1ccc(-c2cccnc2)c(F)c1` [Ref Example 4, (5R)-3-(3-Fluoro-4-pyridin-3-ylphenyl)-5-(1H-1,2,3-triazol-1-ylmethyl)-1,3-oxazolidin-2-one] displayed a Ki at MAO-A of less than 0.3 µM.

In the case of `N#Cc1ccc(-c2ccc(N3C[C@H](Cn4ccnn4)OC3=O)cc2F)cn1` [Ref Example 1, 5-{2-Fluoro-4-[(5R)-2-oxo-5-(1H-1,2,3-triazol-1-ylmethyl)-1,3-oxazolidin-3-yl]phenyl}pyridine-2-carbonitrile], the Ki on MAO-A is less than 0.3 µM.

As to `O=C1O[C@@H](Cn2ccnn2)CN1c1ccc(-c2ccc(C(O)CN3CCOCC3)nc2)c(F)c1` (stereo partly drawn) [Example 1, (5R)-3-{3-Fluoro-4-[6-(1-hydroxy-2-morpholin-4-ylethyl)pyridin-3-yl]phenyl}-5-(1H-1,2,3-triazol-1-ylmethyl)-1,3-oxazolidin-2-one], the MIC in series [2] is 2 µg/mL (≈ 4.27 µM); against Haemophilus influenzae, 4 µg/mL (≈ 8.54 µM); in series [3], 1 µg/mL (≈ 2.13 µM); in series [4], 1 µg/mL (≈ 2.13 µM); against Streptococcus pneumoniae it was 0.25 µg/mL (≈ 0.534 µM). For the same compound, the Ki on MAO-A is 94 µM.

Compound `CC(=O)CC(O)c1ccc(-c2ccc(N3C[C@H](Cn4ccnn4)OC3=O)cc2F)cn1` (stereo partly drawn) [Example 14, (5R)-3-{3-Fluoro-4-[6(1-hydroxy-3-oxobutyl)pyridin-3-yl]phenyl}-5-(1H-1,2,3-triazol-1-ylmethyl)-1,3-oxazolidin-2-one] had a melting point of 130 to 135 °C.

Usually melting point stands for the temperature, or range, at which the solid turns liquid. The Ki is a dissociation constant, usually derived from enzyme kinetics or from competition with a known ligand. A low value points to a stronger hold on the target. What is called solubility (thermodynamic) is the concentration in solution at equilibrium with solid.
